Values joined by “and” are separate entries in the source; they are usually repeats but may differ in a detail not shown here. Equal entries are not always repeated.
How the values were obtained:
BclXL–LD3 interaction = BclXL–LD3 interaction (Homo sapiens, UniProt Q07817); assay: SPR drug competition assay, BclXL–LD3; assay type: binding; settings: for Normalization of Response units / Response units: BclXL, Supp Fig 2d
Bcl2–LD3 interaction = Bcl2–LD3 interaction (Homo sapiens, UniProt P10415); assay: SPR drug competition assay, Bcl2–LD3; assay type: binding; settings: Bcl2, Supp Fig 2d
Method: Drug IC50 values for disrupting heterodimers were measured on a Biacore 8K device. A 5 µM portion of analyte was mixed with 10 µM of BclXL or Bcl2 inhibitors according to the analyte. The mixtures of analyte and drug were injected onto the LD3 immobilized channel.
(§1) Binding affinities of SPR drug competition assays were calculated using three-parameter nonlinear regression in GraphPad Prism (v.8.3.0). Representative data of cell assays are presented as individual values and mean values (bars). n = 3 refers to biological replicates. All IC50 or EC50 values of cell assays reported were calculated using four-parameter nonlinear regression ± s.d. Bandpass features of cutoff concentrations and Bandwidth90% were estimated based on the curve fitted using bell-shaped curve nonlinear regression in GraphPad Prism (v.8.3.0). […]
This assay is designed to test if the drug of interest can specifically disrupt the
interaction between LD3 and BclXL/Bcl2. The drug-receptors (Bcl2, BclXL) are immobilized on the
different channels of the sensor chip, then the binding sites are saturated with LD3. […]

[1] = molecular target: GEMS with the dual-drug-controlled (A-1155463, venetoclax) switch (Bcl2 and BclXL–LD3) in HEK293T cells (Homo sapiens, UniProt P10415); assay: GEMS SEAP reporter assay, dual-drug-controlled (A-1155463, venetoclax) switch; assay type: cell-based; settings: for SEAP (U/L): Figure 2c, OFF-phase
Source text: In the first step, we sought to construct a dual-drug-controlled switch to test whether the ON and OFF switching processes can be combined in our receptor architecture. We used Bcl2 and BclXL as the orthogonal drug receptors, which interact with the LD3 protein and respond to their own specific inhibitors. In such a setting, the dual-drug-controlled switch will turn ON in response to one drug and OFF in response to the other, thus mimicking bandpass filtering behavior (Supplementary Fig. 1d). […] To test the switch behavior, we employed the generalizable extracellular molecule sensor (GEMS) platform, which senses extracellular molecules and thus regulates cell surface signaling pathways (Fig. 2a). This receptor platform is based on a mutated EpoR extracellular and transmembrane domain fused to an IL-6RB intracellular domain. Dimerization of EpoR extracellular domains is controlled by N-terminally fused inducible dimerization domains, which drive IL-6RB activation and STAT3 signaling. The Bcl2 and BclXL–LD3 complexes were fused to the extracellular EpoR domains. […] The dimerization of Bcl2 and LD3 causes EpoR extracellular domain dimerization and triggers JAK/STAT3 signaling. Active STAT3 drives the expression of a reporter protein (secreted alkaline phosphatase (SEAP)) controlled by a STAT3-dependent promoter.
(§2) HEK293T cells were seeded in a 96-well plate 24 h before transfection. The transfection mix in each well consisted of 3 ng of constitutive human CMV promoter driven mammalian STAT3 expression vector (PhCMV-STAT3-pA), 30 ng of STAT3-induced reporter expression (OStat3-PhCMVmin-SEAP-pA) and 50 ng of expression vectors for each GEMS receptor chain (PSV40-IgK-(drughigh receptor)-EpoRm-IL-6RBm-pA and PSV40-IgK-(druglow receptor-GGGGSX3-LD3)-EpoRm-IL-6RBm-pA). For the specific drughigh receptor and druglow receptor used in the different cellular assays, they are indicated as wild type or with mutations. Then, plasmid DNA was mixed with 50 μl opti-MEM (Thermo Fisher) and 600 ng of polyethyleneimine (Polysciences, catalog no. 24765-1). For drug treatment experiments, drugs were added 12 h post-transfection and incubated with cells for 24 h before the SEAP reporter detection assay.
(§3) SEAP activity (U l^−1) in cell culture supernatants was quantified by kinetic measurements at 405 nm (1 minute per measurement for 30 cycles) of absorbance increase due to phosphatase-mediated hydrolysis of para-nitrophenyl phosphate (pNPP).
Binding affinities of SPR drug competition assays were calculated using three-parameter nonlinear regression in GraphPad Prism (v.8.3.0). Representative data of cell assays are presented as individual values and mean values (bars). n = 3 refers to biological replicates. All IC50 or EC50 values of cell assays reported were calculated using four-parameter nonlinear regression ± s.d. Bandpass features of cutoff concentrations and Bandwidth90% were estimated based on the curve fitted using bell-shaped curve nonlinear regression in GraphPad Prism (v.8.3.0).

[2] = molecular target: GEMS with the dual-drug-controlled (venetoclax, A-1155463) switch (BclXL and Bcl2–LD3) in HEK293T cells (Homo sapiens, UniProt P10415); assay: GEMS SEAP reporter assay, dual-drug-controlled (venetoclax, A-1155463) switch; assay type: cell-based
Method: as §2, §3, §1

Bcl2 = settings: cited from earlier work

Chain of Bcl2–LD3 interaction (P10415 1-207 limits assumed): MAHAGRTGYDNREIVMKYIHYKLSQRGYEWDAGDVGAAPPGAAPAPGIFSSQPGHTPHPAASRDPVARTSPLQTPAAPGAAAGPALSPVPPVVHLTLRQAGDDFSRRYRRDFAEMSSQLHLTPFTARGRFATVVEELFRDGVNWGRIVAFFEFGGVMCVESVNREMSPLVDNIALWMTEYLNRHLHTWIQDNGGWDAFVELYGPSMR
Chain of BclXL–LD3 interaction (Q07817 1-209 limits assumed): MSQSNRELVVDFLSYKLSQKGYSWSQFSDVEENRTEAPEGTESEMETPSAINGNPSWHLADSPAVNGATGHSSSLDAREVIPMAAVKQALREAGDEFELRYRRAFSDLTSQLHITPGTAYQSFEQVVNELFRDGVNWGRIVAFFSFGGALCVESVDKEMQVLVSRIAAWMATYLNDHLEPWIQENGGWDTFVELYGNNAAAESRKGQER
Chain of GEMS with the dual-drug-controlled (A-1155463, venetoclax) switch (Bcl2 and BclXL–LD3) in HEK293T cells (Q07817 whole entry): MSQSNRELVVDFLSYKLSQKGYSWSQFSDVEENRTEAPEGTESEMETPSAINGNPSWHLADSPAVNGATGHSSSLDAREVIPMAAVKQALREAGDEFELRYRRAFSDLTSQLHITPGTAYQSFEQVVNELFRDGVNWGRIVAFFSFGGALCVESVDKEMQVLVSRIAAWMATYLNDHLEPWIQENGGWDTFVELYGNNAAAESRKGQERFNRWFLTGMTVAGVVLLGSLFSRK
Chain of GEMS with the dual-drug-controlled (A-1155463, venetoclax) switch (Bcl2 and BclXL–LD3) in HEK293T cells (P10415 whole entry): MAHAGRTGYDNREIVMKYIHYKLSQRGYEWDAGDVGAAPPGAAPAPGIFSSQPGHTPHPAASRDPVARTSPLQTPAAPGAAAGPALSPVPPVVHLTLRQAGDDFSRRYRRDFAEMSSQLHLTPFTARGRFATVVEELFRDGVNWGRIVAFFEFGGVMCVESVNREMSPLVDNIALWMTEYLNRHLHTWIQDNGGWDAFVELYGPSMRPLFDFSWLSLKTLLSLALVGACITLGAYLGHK
Chain of GEMS with the dual-drug-controlled (venetoclax, A-1155463) switch (BclXL and Bcl2–LD3) in HEK293T cells (P10415 whole entry): as above
Chain of GEMS with the dual-drug-controlled (venetoclax, A-1155463) switch (BclXL and Bcl2–LD3) in HEK293T cells (Q07817 whole entry, further chain): as the sequence (Q07817 whole entry) above

## CC1(C)CCC(CN2CCN(c3ccc(C(=O)NS(=O)(=O)c4ccc(NCC5CCOCC5)c([N+](=O)[O-])c4)c(Oc4cnc5[nH]ccc5c4)c3)CC2)=C(c2ccc(Cl)cc2)C1 [Venetoclax]
BclXL–LD3 interaction; V 0.01
  Normalization of Response units: 100.685
  Response units: 94.0092
BclXL–LD3 interaction; V 0.1
  Normalization of Response units: 99.7556
  Response units: 93.1418
BclXL–LD3 interaction; V 1
  Normalization of Response units: 98.8448
  Response units: 92.2914
BclXL–LD3 interaction; V 10
  Normalization of Response units: 97.5083
  Response units: 91.0435
BclXL–LD3 interaction; V 100
  Normalization of Response units: 89.9423
  Response units: 83.9791
BclXL–LD3 interaction; V 1000
  Normalization of Response units: 81.529
  Response units: 76.1236
BclXL–LD3 interaction; V 10000
  Normalization of Response units: 74.8321
  Response units: 69.8707
BclXL–LD3 interaction; SPR drug competition
  effect on the BclXL–LD3 interaction: not affecting
Bcl2–LD3 interaction; V 0.01
  Normalization of Response units: 100.745
  Response units: 7.1398
Bcl2–LD3 interaction; V 0.1
  Normalization of Response units: 100.312
  Response units: 7.1091
Bcl2–LD3 interaction; V 1
  Normalization of Response units: 96.9409
  Response units: 6.8702
Bcl2–LD3 interaction; V 10
  Normalization of Response units: 93.6659
  Response units: 6.6381
Bcl2–LD3 interaction; V 100
  Normalization of Response units: 74.5943
  Response units: 5.2865
Bcl2–LD3 interaction; V 1000
  Normalization of Response units: 57.566
  Response units: 4.0797
Bcl2–LD3 interaction; V 10000
  Normalization of Response units: 38.8006
  Response units: 2.7498
[1]; Independent repeat, Venetoclax 0.001 nM
  SEAP (U/L): 294.62 U/L and 313.4 U/L and 319.588 U/L
[1]; Independent repeat, Venetoclax 0.01 nM
  SEAP (U/L): 267.156 U/L and 307.848 U/L and 300.966 U/L
[1]; Independent repeat, Venetoclax 0.1 nM
  SEAP (U/L): 225.991 U/L and 258.444 U/L and 342.296 U/L
[1]; Independent repeat, Venetoclax 1 nM
  SEAP (U/L): 259.474 U/L and 200.825 U/L and 300.367 U/L
[1]; Independent repeat, Venetoclax 10 nM
  SEAP (U/L): 304.021 U/L and 256.34 U/L and 345.499 U/L
[1]; Independent repeat, Venetoclax 31.6 nM
  SEAP (U/L): 220.194 U/L and 208.431 U/L and 268.11 U/L
[1]; Independent repeat, Venetoclax 100 nM
  SEAP (U/L): 193.21 U/L and 194.937 U/L and 240.35 U/L
[1]; Independent repeat, Venetoclax 316 nM
  SEAP (U/L): 87.2098 U/L and 106.113 U/L and 133.634 U/L
[1]; Independent repeat, Venetoclax 1000 nM
  SEAP (U/L): 44.9721 U/L and 57.2365 U/L and 51.9722 U/L
[1]; Representative, Venetoclax 0.001 nM
  SEAP (U/L): 75.3746 U/L and 89.0712 U/L and 99.0049 U/L
[1]; Representative, Venetoclax 0.01 nM
  SEAP (U/L): 85.1657 U/L and 70.1122 U/L and 89.4923 U/L
[1]; Representative, Venetoclax 0.1 nM
  SEAP (U/L): 81.9771 U/L and 80.9297 U/L and 78.2538 U/L
[1]; Representative, Venetoclax 1 nM
  SEAP (U/L): 69.1909 U/L and 65.9454 U/L and 68.5076 U/L
[1]; Representative, Venetoclax 10 nM
  SEAP (U/L): 45.3899 U/L and 45.448 U/L and 63.5072 U/L
[1]; Representative, Venetoclax 31.6 nM
  SEAP (U/L): 23.8212 U/L and 28.0484 U/L and 21.6764 U/L
[1]; Representative, Venetoclax 100 nM
  SEAP (U/L): 11.359 U/L and 10.3713 U/L and 12.1034 U/L
[1]; Representative, Venetoclax 316 nM
  SEAP (U/L): 9.4797 U/L and 7.067 U/L and 8.943 U/L
[1]; Representative, Venetoclax 1000 nM
  SEAP (U/L): 8.365 U/L and 6.996 U/L and 8.215 U/L
[1]; adding 1 µM venetoclax to 100 nM A-1155463
  shut-down of reporter gene expression: effectively shut down
[2]
  increase in the ON phase: close to tenfold
Bcl2
  affinity for Bcl2 stronger than for BclXL: 500 fold

— publication PMC11062894, “Protein-based bandpass filters for controlling cellular signaling with chemical inputs” (Nature Chemical Biology, 2023)
